Earlier results, collected in patent US20240115666A1, “COMPOSITIONS AND METHODS FOR REDUCING GAMMA-GLUTAMYLTRANSFERASE LEVELS” (Lile Method Research, LLC, priority 2022, published 2024).

SMILES: N[C@@H](CCC(=O)N[C@@H](CS)C(=O)NCC(=O)O)C(=O)O [glutathione, L-γ-glutamyl-L-cysteinylglycine]
- half-life in the blood: seconds to minutes
